According to patent US20210045385A1, “PYRIDAZINONE-SUBSTITUTED KETOXIMES AS HERBICIDES” (FMC Corporation, priority 2018, published 2021):

Columns and labels:
Format in all cases: in vivo
[1] = test system: foxtail, giant (giant foxtail, Setaria faberii); assay: Test A postemergence, visual plant response rating; details: for Foxtail, Giant plant response rating (0 to 100 scale): 500 g ai/ha, postemergence, 0 is no effect, 100 is complete control; for Foxtail, Giant plant response rating: Postemergence, 125 g ai/ha, 0 to 100 scale (0 no effect, 100 complete control)
Outline: (§1)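 Greenhouse pot test in loam–sand soil mix: compound in a surfactant-containing non-phytotoxic solvent applied preemergence (directed soil spray) or postemergence (one- to two-leaf plants, 2–10 cm). Injury scored visually after ~10 days, 0–100.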

[2] = test system: kochia (Kochia scoparia); assay: Test A postemergence, visual plant response rating; details: for Kochia plant response rating (0 to 100 scale): 500 g ai/ha, postemergence, 0 is no effect, 100 is complete control; for Kochia plant response rating: Postemergence, 125 g ai/ha, 0 to 100 scale (0 no effect, 100 complete control)
Outline: as §1

[3] = test system: galium (catchweed bedstraw, Galium aparine); assay: Test A postemergence, visual plant response rating; details: for Galium plant response rating (0 to 100 scale): 500 g ai/ha, postemergence, 0 is no effect, 100 is complete control; for Galium plant response rating: Postemergence, 125 g ai/ha, 0 to 100 scale (0 no effect, 100 complete control)
Outline: as §1

[4] = test system: Italian ryegrass (Lolium multiflorum); assay: Test A postemergence, visual plant response rating
Outline: as §1

[5] = test system: blackgrass (Alopecurus myosuroides); assay: Test A postemergence, visual plant response rating; details: for Blackgrass plant response rating (0 to 100 scale): 500 g ai/ha, postemergence, 0 is no effect, 100 is complete control; for Blackgrass plant response rating: Postemergence, 125 g ai/ha, 0 to 100 scale (0 no effect, 100 complete control)
Outline: as §1

[6] = test system: pigweed (Amaranthus retroflexus); assay: Test A postemergence, visual plant response rating; details: for Pigweed plant response rating (0 to 100 scale): 500 g ai/ha, postemergence, 0 is no effect, 100 is complete control; for Pigweed plant response rating: Postemergence, 125 g ai/ha, 0 to 100 scale (0 no effect, 100 complete control)
Outline: as §1

[7] = test system: barnyardgrass (Echinochloa crus-galli); assay: Test A postemergence, visual plant response rating; details: for Barnyardgrass plant response rating (0 to 100 scale): 500 g ai/ha, postemergence, 0 is no effect, 100 is complete control; for Barnyardgrass plant response rating: Postemergence, 125 g ai/ha, 0 to 100 scale (0 no effect, 100 complete control)
Outline: as §1

[8] = test system: ragweed (common ragweed, Ambrosia elatior); assay: Test A postemergence, visual plant response rating; details: for Ragweed plant response rating (0 to 100 scale): 500 g ai/ha, postemergence, 0 is no effect, 100 is complete control; for Ragweed plant response rating: Postemergence, 125 g ai/ha, 0 to 100 scale (0 no effect, 100 complete control)
Outline: as §1

[9] = test system: corn (Zea mays); assay: Test A postemergence, visual plant response rating; details: for Corn plant response rating (0 to 100 scale): 500 g ai/ha, postemergence, 0 is no effect, 100 is complete control; for Corn plant response rating: Postemergence, 125 g ai/ha, 0 to 100 scale (0 no effect, 100 complete control)
Outline: as §1

[10] = test system: wheat (Triticum aestivum); assay: Test A postemergence, visual plant response rating; details: for Wheat plant response rating: 0 to 100 scale (0 no effect, 100 complete control)
Outline: as §1

[11] = test system: foxtail, giant (giant foxtail, Setaria faberii); assay: Test A preemergence, visual plant response rating; details: for Foxtail, Giant plant response rating: 125 g ai/ha, preemergence, 0 to 100 scale, 0 no effect, 100 complete control; for Foxtail, Giant plant response rating (0 to 100 scale): 500 g ai/ha Preemergence, approx. 10 days
Outline: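 Compared with untreated controls, treated plants received a visual injury score on a 0–100 scale around 10 days after application. The compound, in a non-phytotoxic solvent with surfactant, was given as a preemergence soil spray or postemergence at the one- to two-leaf stage.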

[12] = test system: kochia (Kochia scoparia); assay: Test A preemergence, visual plant response rating; details: for Kochia plant response rating: 125 g ai/ha, preemergence, 0 to 100 scale, 0 no effect, 100 complete control; for Kochia plant response rating (0 to 100 scale): 500 g ai/ha Preemergence, approx. 10 days
Outline: as §1

[13] = test system: Italian ryegrass (Lolium multiflorum); assay: Test A preemergence, visual plant response rating; details: for Ryegrass, Italian plant response rating: 125 g ai/ha, preemergence, 0 to 100 scale, 0 no effect, 100 complete control; for Ryegrass, Italian plant response rating (0 to 100 scale): 500 g ai/ha Preemergence, approx. 10 days
Outline: as §1

[14] = test system: pigweed (Amaranthus retroflexus); assay: Test A preemergence, visual plant response rating; details: for Pigweed plant response rating: 125 g ai/ha, preemergence, 0 to 100 scale, 0 no effect, 100 complete control; for Pigweed plant response rating (0 to 100 scale): 500 g ai/ha Preemergence, approx. 10 days
Outline: as §1

[15] = test system: barnyardgrass (Echinochloa crus-galli); assay: Test A preemergence, visual plant response rating; details: for Barnyardgrass plant response rating: 125 g ai/ha, preemergence, 0 to 100 scale, 0 no effect, 100 complete control; for Barnyardgrass plant response rating (0 to 100 scale): 500 g ai/ha Preemergence, approx. 10 days
Outline: as §1

[16] = test system: ragweed (common ragweed, Ambrosia elatior); assay: Test A preemergence, visual plant response rating; details: for Ragweed plant response rating: 125 g ai/ha, preemergence, 0 to 100 scale, 0 no effect, 100 complete control; for Ragweed plant response rating (0 to 100 scale): 500 g ai/ha Preemergence, approx. 10 days
Outline: as §1

[17] = test system: rice (Oryza sativa); assay: Test B flooded paddy test, visual plant response rating; details: 250 g ai/ha, Flood, applied to paddy water, 2-leaf stage, evaluated after 13 to 15 days
Outline: (§2)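 Compounds added straight into paddy water of pots flooded to 3 cm, with 2-leaf-stage plants of the four species; water level held throughout.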

[18] = test system: sedge, umbrella (small-flower umbrella sedge, Cyperus difformis); assay: as above; details: 250 g ai/ha, Flood, applied to paddy water, 2-leaf stage, evaluated after 13 to 15 days
Outline: as §2

[19] = test system: ducksalad (Heteranhera limosa); assay: as above; details: 250 g ai/ha, Flood, applied to paddy water, 2-leaf stage, evaluated after 13 to 15 days
Outline: as §2

[20] = test system: barnyardgrass (Echinochloa crus-galli); assay: as above; details: 250 g ai/ha, Flood, applied to paddy water, 2-leaf stage, evaluated after 13 to 15 days
Outline: as §2

[21] = 500 g ai/ha, postemergence, 0 is no effect, 100 is complete control
[22] = Postemergence, rate not given, approx. 10 days

| Compound | Foxtail, Giant plant response rating (0 to 100 scale) [1] | Foxtail, Giant plant response rating [1] | Kochia plant response rating (0 to 100 scale) [2] | Kochia plant response rating [2] | Galium plant response rating (0 to 100 scale) [3] | Galium plant response rating [3] | Ryegrass, Italian plant response rating (0 to 100 scale) [4, 21] | Blackgrass plant response rating (0 to 100 scale) [5] | Blackgrass plant response rating [5] | Pigweed plant response rating (0 to 100 scale) [6] | Pigweed plant response rating [6] | Barnyardgrass plant response rating (0 to 100 scale) [7] | Barnyardgrass plant response rating [7] | Ragweed plant response rating (0 to 100 scale) [8] | Ragweed plant response rating [8] | Corn plant response rating (0 to 100 scale) [9] | Corn plant response rating [9] | Foxtail, Giant plant response rating [11] | Foxtail, Giant plant response rating (0 to 100 scale) [11] | Kochia plant response rating [12] | further results |
| --- | --- | --- | --- | --- | --- | --- | --- | --- | --- | --- | --- | --- | --- | --- | --- | --- | --- | --- | --- | --- | --- |
| CCO/N=C(/c1c(O)c(Cl)nn(C)c1=O)c1cccc2ccccc12 [Compound 147] | 70 | 30 | 90 | 40 | 90 | 90 | 0 | 60 | 30 | 90 | 40 | 60 | 20 | 90 | 100 | 30 | 0 | 50 | 80 | 100 | Ryegrass, Italian plant response rating (0 to 100 scale) [4, 22]: 0; Wheat plant response rating ([10]; Postemergence, 500 g ai/ha): 0; Wheat plant response rating (0 to 100 scale) ([10]; Postemergence, approx. 10 days): 0; Kochia plant response rating (0 to 100 scale) [12]: 100; Ryegrass, Italian plant response rating [13]: 0; Ryegrass, Italian plant response rating (0 to 100 scale) [13]: 0; Pigweed plant response rating [14]: 60; Pigweed plant response rating (0 to 100 scale) [14]: 100; Barnyardgrass plant response rating [15]: 50; Barnyardgrass plant response rating (0 to 100 scale) [15]: 60; Ragweed plant response rating [16]: 90; Ragweed plant response rating (0 to 100 scale) [16]: 100; Plant response rating, Rice (0 to 100 scale, 0 is no effect, 100 is complete control) [17]: 0; Plant response rating, Sedge, Umbrella (0 to 100 scale, 0 is no effect, 100 is complete control) [18]: 0; Plant response rating, Ducksalad (0 to 100 scale, 0 is no effect, 100 is complete control) [19]: 0; Plant response rating, Barnyardgrass (0 to 100 scale, 0 is no effect, 100 is complete control) [20]: 0 |
| C=CCON=C(c1c(O)c(C)nn(C)c1=O)c1cc(Br)cc2ccccc12 [Compound 114] | 90 | 90 | 40 | 30 | 100 | 100 | 90 | 90 | 80 | 90 | 70 | 90 | 80 | 100 | 90 | 80 | 20 | 100 | 100 | 10 | Ryegrass, Italian plant response rating ([4]; Postemergence, 125 g ai/ha, 0 to 100 scale (0 no effect, 100 complete control)): 80; Wheat plant response rating (0 to 100 scale) [10, 21]: 50; Wheat plant response rating ([10]; Postemergence, 125 g ai/ha): 0; Kochia plant response rating (0 to 100 scale) [12]: 20; Ryegrass, Italian plant response rating [13]: 70; Ryegrass, Italian plant response rating (0 to 100 scale) [13]: 100; Pigweed plant response rating [14]: 10; Pigweed plant response rating (0 to 100 scale) [14]: 80; Barnyardgrass plant response rating [15]: 90; Barnyardgrass plant response rating (0 to 100 scale) [15]: 100; Ragweed plant response rating [16]: 80; Ragweed plant response rating (0 to 100 scale) [16]: 90; Plant response rating, Rice (0 to 100 scale, 0 is no effect, 100 is complete control) [17]: 35; Plant response rating, Sedge, Umbrella (0 to 100 scale, 0 is no effect, 100 is complete control) [18]: 85; Plant response rating, Ducksalad (0 to 100 scale, 0 is no effect, 100 is complete control) [19]: 85; Plant response rating, Barnyardgrass (0 to 100 scale, 0 is no effect, 100 is complete control) [20]: 70 |
| CON=C(c1ccc(C)o1)c1c(O)c(C)nn(C)c1=O [Compound 141] | 0 | 0 | 0 | 0 | 10 | 0 | 0 | 30 | 10 | 0 | 0 | 0 | 0 | 0 | 0 | 0 | 0 | 0 | 0 | 0 | Ryegrass, Italian plant response rating (0 to 100 scale) [4, 22]: 0; Wheat plant response rating ([10]; Postemergence, 500 g ai/ha): 0; Wheat plant response rating (0 to 100 scale) ([10]; Postemergence, approx. 10 days): 0; Kochia plant response rating (0 to 100 scale) [12]: 0; Ryegrass, Italian plant response rating [13]: 0; Ryegrass, Italian plant response rating (0 to 100 scale) [13]: 20; Pigweed plant response rating [14]: 0; Pigweed plant response rating (0 to 100 scale) [14]: 0; Barnyardgrass plant response rating [15]: 0; Barnyardgrass plant response rating (0 to 100 scale) [15]: 0; Ragweed plant response rating [16]: 0; Ragweed plant response rating (0 to 100 scale) [16]: 0; Plant response rating, Rice (0 to 100 scale, 0 is no effect, 100 is complete control) [17]: 0; Plant response rating, Sedge, Umbrella (0 to 100 scale, 0 is no effect, 100 is complete control) [18]: 0; Plant response rating, Ducksalad (0 to 100 scale, 0 is no effect, 100 is complete control) [19]: 0; Plant response rating, Barnyardgrass (0 to 100 scale, 0 is no effect, 100 is complete control) [20]: 0 |
